Test results from US20260078108A1, “SOLID FORMS OF A ROCK INHIBITOR” (REDX PHARMA PLC, priority 2022, published 2026).
Structures can show the parent of a compound that is named as a salt.

Legend:
[1] = system: animal models of inflammatory bowel disease; settings: multiple animal models of inflammatory bowel disease; preclinical data, background; cited from earlier work
[2] = 7-day stability testing of solid forms (HPLC purity, XRPD); type: physicochemical; settings: for Purity (area %) / Decrease in purity versus Day 0: listed as HCI salt Form II
Procedure: About 10 mg of freebase Form I, HCl salt Form II, Succinate Form I and received HCl salt Form I were placed at 60° C./capped and 40° C./75% RH (open), respectively. Samples were prepared in duplicate for each condition. At day 0 and day 7, the samples were analyzed by HPLC and XRPD to check the purity and crystal form, respectively.

[3] = Longer term stability of HCl salt form II (HPLC, XRPD; 1 and 3 months); type: physicochemical
Procedure: Samples were prepared in duplicate for each condition. At day 0 and at 1 month, and 3 months, the samples were analyzed by HPLC and XRPD to check the purity and crystal form, respectively.

[4] = Solubility testing in water, SGF, FaSSIF, FeSSIF at 37° C.; type: physicochemical; settings: for Solubility: 37° C.
Procedure: About 15 mg of sample was weighed into each sample vial and then 3.0 mL of water, simulated gastric fluid (SGF), Fasted State Simulated Intestinal Fluid (FaSSIF) or Fed State Simulated Intestinal Fluid (FeSSIF) media was added. Samples were prepared in triplicate for each media. The suspensions were kept shaking at 37° C. for up to 24 h. At 0.5, 2 and 24 h, suspensions were filtered and the filtrate was analyzed by HPLC.

[5] = 25° C.±2° C., 60% RH±5% RH, T1 month
[6] = 25° C.±2° C., 60% RH±5% RH, T3 month
[7] = 40° C.±2° C., 74% RH±5% RH, T1 month
[8] = 40° C.±2° C., 74% RH±5% RH, T3 month

NCc1ccc(C(=O)Nc2ccncc2F)cc1-c1cccc(C(=O)Nc2ccc(SCC3CCOC3=O)cc2)c1 (centres unmarked) [Compound A, 4-(aminomethyl)-N-(3-fluoropyridin-4-yl)-3-{3-[(4-{[(2-oxooxolan-3-yl)methyl]sulfanyl}phenyl)carbamoyl]phenyl}benzamide]
Anti-fibrotic therapeutic effects [1]: strong anti-fibrotic therapeutic effects
Stability (in words) ([2]; chemical stability of solid forms, comparison): low chemical stability

NCc1ccc(C(=O)Nc2ccncc2F)cc1-c1cccc(C(=O)Nc2ccc(SC[C@H]3CCOC3=O)cc2)c1 [HCl salt Form II]
Longer term stability (in words) ([3]; 25° C./60% RH and accelerated 40° C./75% RH): stable for up to 3 months even under accelerated conditions
Assay by HPLC (water and solvent free)(area) ([3]; 25° C.±2° C., 60% RH±5% RH, T0): 101.6%
Polymorphism by XRPD ([3]; 25° C.±2° C., 60% RH±5% RH, T0): Form II
Total impurities by HPLC ([3]; 25° C.±2° C., 60% RH±5% RH, T0): impurities: 1.0%
Water Content ([3]; 25° C.±2° C., 60% RH±5% RH, T0): 1.8%
Assay by HPLC (water and solvent free)(area) [3, 5]: 101.4%
Polymorphism by XRPD [3, 5]: Form II
Total impurities by HPLC [3, 5]: impurities: 1.1%
Water Content [3, 5]: 1.6%
Assay by HPLC (water and solvent free)(area) [3, 6]: 101.2%
Polymorphism by XRPD [3, 6]: Form II
Total impurities by HPLC [3, 6]: impurities: 1.0%
Water Content [3, 6]: 1.4%
Assay by HPLC (water and solvent free)(area) ([3]; 40° C.±2° C., 74% RH±5% RH, T0): 101.6%
Polymorphism by XRPD ([3]; 40° C.±2° C., 74% RH±5% RH, T0): Form II
Total impurities by HPLC ([3]; 40° C.±2° C., 74% RH±5% RH, T0): impurities: 1.0%
Water Content ([3]; 40° C.±2° C., 74% RH±5% RH, T0): 1.8%
Assay by HPLC (water and solvent free)(area) [3, 7]: 101.4%
Polymorphism by XRPD [3, 7]: Form II
Total impurities by HPLC [3, 7]: impurities: 1.1%
Water Content [3, 7]: 1.5%
Assay by HPLC (water and solvent free)(area) [3, 8]: 101.4%
Polymorphism by XRPD [3, 8]: Form II
Total impurities by HPLC [3, 8]: impurities: 1.1%
Water Content [3, 8]: 1.5%
Purity (area %) ([2]; Day 0, HPLC): 98.65 area %
XRPD (crystal form) ([2]; Day 7, 40° C./75% RH (open)): No change
Purity (area %) ([2]; Day 7, 40° C./75% RH (open), HPLC): 98.48 area %
Decrease in purity versus Day 0 ([2]; Day 7, 40° C./75% RH (open)): 0.2 area %
XRPD (crystal form) ([2]; Day 7, 60° C./capped): No change
Purity (area %) ([2]; Day 7, 60° C./capped, HPLC): 98.45 area %
Decrease in purity versus Day 0 ([2]; Day 7, 60° C./capped): 0.2 area %
Solubility ([4]; FaSSIF (pH of media 6.5), 0.5 h): 19 µg/mL
Solubility ([4]; FaSSIF (pH of media 6.5), 2 h): 23 µg/mL
Solubility ([4]; FaSSIF (pH of media 6.5), 24 h): 6 µg/mL
Solubility ([4]; FeSSIF (pH of media 5.0), 0.5 h): 64 µg/mL
Solubility ([4]; FeSSIF (pH of media 5.0), 2 h): 69 µg/mL
solubility at 24 h ([4]; Fed State Simulated Intestinal Fluid (FeSSIF), 37 °C, pH 5, fessif, thermodynamic from solid, FeSSIF (pH of media 5.0), 24 h): 57 µg/mL
Solubility ([4]; SGF (pH of media 1.2), 0.5 h): 2550 µg/mL
Solubility ([4]; SGF (pH of media 1.2), 2 h): 2591 µg/mL
Solubility ([4]; SGF (pH of media 1.2), 24 h): 3372 µg/mL
Solubility in SGF (in words) ([4]; SGF, comparison with HCl Salt Form 1): more soluble in SGF than HCl Salt Form 1
Solubility ([4]; Water (pH of media 7.9), 0.5 h): 716 µg/mL
Solubility ([4]; Water (pH of media 7.9), 2 h): 696 µg/mL
Solubility ([4]; Water (pH of media 7.9), 24 h): 919 µg/mL
pH ([4]; pH of sample in FaSSIF (pH of media 6.5), 0.5 h): 6.4
pH ([4]; pH of sample in FaSSIF (pH of media 6.5), 2 h): 6.4
pH ([4]; pH of sample in FaSSIF (pH of media 6.5), 24 h): 6.4
pH ([4]; pH of sample in FeSSIF (pH of media 5.0), 0.5 h): 4.9
pH ([4]; pH of sample in FeSSIF (pH of media 5.0), 2 h): 4.9
pH ([4]; pH of sample in FeSSIF (pH of media 5.0), 24 h): 4.9
pH ([4]; pH of sample in SGF (pH of media 1.2), 0.5 h): 1.2
pH ([4]; pH of sample in SGF (pH of media 1.2), 2 h): 1.4
pH ([4]; pH of sample in SGF (pH of media 1.2), 24 h): 1.4
pH ([4]; pH of sample in Water (pH of media 7.9), 0.5 h): 4.9
pH ([4]; pH of sample in Water (pH of media 7.9), 2 h): 4.8
pH ([4]; pH of sample in Water (pH of media 7.9), 24 h): 6.0
